From patent publication US12180187B2, “1-phenyl-5-azinylpyrazolyl-3-oxyalkyl acids and their use for controlling unwanted plant growth” (BAYER AKTIENGESELLSCHAFT, priority 2019, dated 2024)

Columns and labels:
[1] = tested on: POLCO; experiment: Pre-emergence action at 320 g/ha against POLCO; type: in vivo, Fallopia convolvulus (Polygonum convolvulus); conditions: visual scoring after about 3 weeks vs untreated controls; for pest or weed control at 320 g/ha: Fallopia convolvulus, 504 h
Method in brief: (§1)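 Greenhouse pot trial in which formulated compound (wettable powder or emulsion concentrate) goes onto the soil surface right after sowing, at a spray volume of 600 l/ha including 0.5% additive. Effects are judged visually after about 3 weeks (0% = like control, 100% = dead).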

[2] = tested on: DIGSA; experiment: Pre-emergence action at 320 g/ha against DIGSA; type: in vivo, Digitaria sanguinalis; conditions: visual scoring after about 3 weeks vs untreated controls; for pest or weed control at 320 g/ha: Digitaria sanguinalis, 504 h
Method in brief: as §1

[3] = tested on: STEME; experiment: Pre-emergence action against STEME, 1280 g/ha; type: in vivo, Stellaria media; conditions: scored visually after about 3 weeks vs untreated controls (100% = plants have died); for pest or weed control at 1280 g/ha: Stellaria media, 504 h
Method in brief: (§2)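 Visual % scoring, roughly 3 weeks post-application, against untreated controls; 100% means plants died. Treatment went onto the soil covering sown seeds (sandy loam), as aqueous suspension or emulsion plus 0.5% additive.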

[4] = tested on: VERPE; experiment: Pre-emergence action at 320 g/ha against VERPE; type: in vivo, Veronica persica; conditions: visual scoring after about 3 weeks vs untreated controls; for pest or weed control at 320 g/ha: Veronica persica, 504 h
Method in brief: as §1

[5] = tested on: AVEFA; experiment: Pre-emergence action at 320 g/ha against AVEFA; type: in vivo; conditions: visual scoring after about 3 weeks vs untreated controls; for pest or weed control at 320 g/ha: Avena fatua, 504 h
Method in brief: as §1

[6] = tested on: ALOMY; experiment: Post-emergence action against ALOMY, 1.28 kg/ha; type: in vivo, Alopecurus myosuroides; conditions: dosage 1280 g/ha, visual rating about 3 weeks after treatment vs untreated controls
Method in brief: (§3)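 Herbicidal action is estimated by eye after about three weeks under optimum greenhouse conditions, on a 0–100% scale against untreated plants. Compounds are applied post-emergence to one-leaf-stage weeds as aqueous WP or EC preparations containing 0.5% additive, sprayed at 600 L/ha.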

[7] = tested on: POAAN; experiment: Post-emergence action against POAAN, 1.28 kg/ha; type: in vivo, Poa annua; conditions: dosage 1280 g/ha, visual rating about 3 weeks after treatment vs untreated controls; for pest or weed control at 1280 g/ha: Poa annua, 504 h
Method in brief: as §3

[8] = tested on: AMARE; experiment: Pre-emergence action at 320 g/ha against AMARE; type: in vivo, Amaranthus retroflexus; conditions: visual scoring after about 3 weeks vs untreated controls; for pest or weed control at 320 g/ha: Amaranthus retroflexus, 504 h
Method in brief: as §1

[9] = tested on: MATIN; experiment: Pre-emergence action against MATIN, 1280 g/ha; type: in vivo, Tripleurospermum inodorum (Matricaria inodora); conditions: scored visually after about 3 weeks vs untreated controls (100% = plants have died); for pest or weed control at 1280 g/ha: Tripleurospermum inodorum, 504 h
Method in brief: as §2

[10] = tested on: SETVI; experiment: Pre-emergence action against SETVI, 1280 g/ha; type: in vivo, Setaria viridis; conditions: visual scoring after about 3 weeks vs untreated controls, 100% = plants have died, 0% = like control plants; for pest or weed control at 1280 g/ha: Setaria viridis, 504 h
Method in brief: as §2

[11] = tested on: AMARE; experiment: Pre-emergence action against AMARE, 1280 g/ha; type: in vivo, Amaranthus retroflexus; conditions: scored visually after about 3 weeks vs untreated controls (100% = plants have died); for pest or weed control at 1280 g/ha: Amaranthus retroflexus, 504 h
Method in brief: as §2

[12] = tested on: SETVI; experiment: Pre-emergence action at 320 g/ha against SETVI; type: in vivo, Setaria viridis; conditions: visual scoring after about 3 weeks vs untreated controls; for pest or weed control at 320 g/ha: Setaria viridis, 504 h
Method in brief: as §1

[13] = tested on: POAAN; experiment: Pre-emergence action against POAAN, 1280 g/ha; type: in vivo, Poa annua; conditions: visual scoring after about 3 weeks vs untreated controls, 100% = plants have died, 0% = like control plants; for pest or weed control at 1280 g/ha: Poa annua, 504 h
Method in brief: as §2

[14] = tested on: ECHCG; experiment: Pre-emergence action against ECHCG, 1280 g/ha; type: in vivo, Echinochloa crus-galli; conditions: visual scoring after about 3 weeks vs untreated controls, 100% = plants have died, 0% = like control plants; for pest or weed control at 1280 g/ha: Echinochloa crus-galli, 504 h
Method in brief: as §2

[15] = tested on: ALOMY; experiment: Pre-emergence action at 320 g/ha against ALOMY; type: in vivo, Alopecurus myosuroides; conditions: scored visually after about 3 weeks vs untreated controls (100% = plants have died); for pest or weed control at 320 g/ha: Alopecurus myosuroides, 504 h
Method in brief: as §1

Row | Compound | pest or weed control at 320 g/ha [1] [%] | pest or weed control at 320 g/ha [2] [%] | pest or weed control at 1280 g/ha [3] [%] | pest or weed control at 320 g/ha [4] [%] | pest or weed control at 320 g/ha [5] [%] | Post-emergence action against ALOMY [6] [%] | Pre-emergence action against POLCO in % [1] [%] | Pre-emergence action against DIGSA in % [2] [%] | Pre-emergence action against STEME [3] [%] | Pre-emergence action against VERPE in % [4] [%] | Pre-emergence action against AVEFA in % [5] [%] | Post-emergence action against POAAN [7] [%] | Pre-emergence action against AMARE in % [8] [%] | Pre-emergence action against MATIN [9] [%] | Pre-emergence action against SETVI [10] [%] | Pre-emergence action against AMARE [11] [%] | Pre-emergence action against SETVI in % [12] [%] | Pre-emergence action against POAAN [13] [%] | Pre-emergence action against ECHCG [14] [%] | Pre-emergence action at 320 g/ha against ALOMY in % [15] [%] | also measured
1 | COC(=O)[C@@H](C)Oc1nn(-c2ccccc2F)c(-c2cncnc2)c1Br [VI-011, Methyl (2R)-2-{[4-bromo-1-(2-fluorophenyl)-5-(pyrimidin-5-yl)-1H-pyrazol-3-yl]oxy}propanoate] | 80 | 100 | 100 | 90 | 80 | 100 |  |  |  |  |  |  |  |  |  |  |  |  |  |  | pest or weed control at 1280 g/ha [7]: 100%; pest or weed control at 320 g/ha [8]: 100%; pest or weed control at 1280 g/ha [9]: 90%; pest or weed control at 1280 g/ha [10]: 100%; pest or weed control at 1280 g/ha [11]: 100%; pest or weed control at 320 g/ha [12]: 100%; pest or weed control at 1280 g/ha [13]: 100%; pest or weed control at 1280 g/ha [14]: 100%; pest or weed control at 320 g/ha [15]: 100%
2 | C[C@@H](Oc1nn(-c2ccccc2F)c(-c2cncnc2)c1Br)C(=O)O [VI-012] |  |  |  |  |  | 100 | 80 | 100 | 100 | 100 | 80 | 100 | 100 | 90 | 100 | 100 | 100 | 100 | 90 | 90 | 
3 | O=C(O)COc1nn(-c2ccccc2F)c(-c2ccc(F)nc2)c1Br [VII-003, {[4-Bromo-1-(2-fluorophenyl)-5-(6-fluoropyridin-3-yl)-1H-pyrazol-3-yl]oxy}acetic acid] | 90 | 100 | 100 | 100 | 90 | 90 |  |  |  |  |  |  |  |  |  |  |  |  |  |  | pest or weed control at 1280 g/ha [7]: 100%; pest or weed control at 320 g/ha [8]: 100%; pest or weed control at 1280 g/ha [9]: 100%; pest or weed control at 1280 g/ha [10]: 100%; pest or weed control at 1280 g/ha [11]: 100%; pest or weed control at 320 g/ha [12]: 100%; pest or weed control at 1280 g/ha [13]: 100%; pest or weed control at 1280 g/ha [14]: 100%; pest or weed control at 320 g/ha [15]: 100%
4 | COC(=O)[C@@H](C)Oc1nn(-c2ccccc2)c(-c2cccnc2)c1Br [VII-008] |  |  |  |  |  | 100 | 100 | 90 | 100 | 100 | 80 | 100 | 100 | 100 | 100 | 100 | 100 | 100 | 100 | 100 | 
5 | CCOC(=O)COc1nn(-c2ccccc2F)c(-c2ccc(F)nc2)c1C(F)(F)F [VII-010] |  |  |  |  |  | 100 | 90 | 100 | 100 | 100 | 90 | 100 | 100 | 90 | 100 | 100 | 100 | 100 | 100 | 100 | 
6 | CCOC(=O)COc1nn(-c2ccccc2F)c(-c2ccc(F)nc2)c1Br [VII-012, Ethyl {[4-bromo-1-(2-fluorophenyl)-5-(6-fluoropyridin-3-yl)-1H-pyrazol-3-yl]oxy}acetate] | 90 | 100 | 90 | 100 | 90 | 100 |  |  |  |  |  |  |  |  |  |  |  |  |  |  | pest or weed control at 1280 g/ha [7]: 100%; pest or weed control at 320 g/ha [8]: 100%; pest or weed control at 1280 g/ha [9]: 100%; pest or weed control at 1280 g/ha [10]: 100%; pest or weed control at 1280 g/ha [11]: 100%; pest or weed control at 320 g/ha [12]: 100%; pest or weed control at 1280 g/ha [13]: 100%; pest or weed control at 1280 g/ha [14]: 100%; pest or weed control at 320 g/ha [15]: 100%
7 | COC(=O)C(C)Oc1nn(-c2ccccc2)c(-c2ccc(F)nc2)c1Br (stereo not drawn) [VII-014] |  |  |  |  |  | 100 | 90 | 100 | 100 | 100 | 90 | 100 | 90 | 90 | 100 | 100 | 100 | 100 | 90 | 100 | 
8 | CCOC(=O)COc1nn(-c2ccccc2F)c(-c2cncc(F)c2)c1Br [VII-015] |  |  |  |  |  | 100 | 100 | 100 | 100 | 100 | 90 | 100 | 100 | 100 | 100 | 100 | 100 | 100 | 100 | 100 | 
9 | COC(=O)COc1nn(-c2ccccc2)c(-c2ccc(F)nc2)c1Br [VII-018] |  |  |  |  |  | 100 | 100 | 100 | 100 | 100 | 80 | 100 | 100 | 90 | 100 | 100 | 100 | 100 | 100 | 100 | 
10 | CCOC(=O)C(C)Oc1nn(-c2ccccc2F)c(-c2ccc(F)nc2)c1Br (stereo not drawn) [VII-019] |  |  |  |  |  | 100 | 100 | 100 | 100 | 100 | 90 | 100 | 100 | 90 | 100 | 100 | 100 | 100 | 100 | 100 | 
